Measurements published in ChEMBL document CHEMBL1629464, “Aldehyde oxidase: an enzyme of emerging importance in drug discovery” (J Med Chem, 2010).

Key:
Aldehyde oxidase 1 [1] = biological target: T1, Aldehyde oxidase 1 (Macaca fascicularis, UniProt Q5FB27); assay: Inhibition of monkey aldehyde oxidase
T1 sequence (Q5FB27 whole entry): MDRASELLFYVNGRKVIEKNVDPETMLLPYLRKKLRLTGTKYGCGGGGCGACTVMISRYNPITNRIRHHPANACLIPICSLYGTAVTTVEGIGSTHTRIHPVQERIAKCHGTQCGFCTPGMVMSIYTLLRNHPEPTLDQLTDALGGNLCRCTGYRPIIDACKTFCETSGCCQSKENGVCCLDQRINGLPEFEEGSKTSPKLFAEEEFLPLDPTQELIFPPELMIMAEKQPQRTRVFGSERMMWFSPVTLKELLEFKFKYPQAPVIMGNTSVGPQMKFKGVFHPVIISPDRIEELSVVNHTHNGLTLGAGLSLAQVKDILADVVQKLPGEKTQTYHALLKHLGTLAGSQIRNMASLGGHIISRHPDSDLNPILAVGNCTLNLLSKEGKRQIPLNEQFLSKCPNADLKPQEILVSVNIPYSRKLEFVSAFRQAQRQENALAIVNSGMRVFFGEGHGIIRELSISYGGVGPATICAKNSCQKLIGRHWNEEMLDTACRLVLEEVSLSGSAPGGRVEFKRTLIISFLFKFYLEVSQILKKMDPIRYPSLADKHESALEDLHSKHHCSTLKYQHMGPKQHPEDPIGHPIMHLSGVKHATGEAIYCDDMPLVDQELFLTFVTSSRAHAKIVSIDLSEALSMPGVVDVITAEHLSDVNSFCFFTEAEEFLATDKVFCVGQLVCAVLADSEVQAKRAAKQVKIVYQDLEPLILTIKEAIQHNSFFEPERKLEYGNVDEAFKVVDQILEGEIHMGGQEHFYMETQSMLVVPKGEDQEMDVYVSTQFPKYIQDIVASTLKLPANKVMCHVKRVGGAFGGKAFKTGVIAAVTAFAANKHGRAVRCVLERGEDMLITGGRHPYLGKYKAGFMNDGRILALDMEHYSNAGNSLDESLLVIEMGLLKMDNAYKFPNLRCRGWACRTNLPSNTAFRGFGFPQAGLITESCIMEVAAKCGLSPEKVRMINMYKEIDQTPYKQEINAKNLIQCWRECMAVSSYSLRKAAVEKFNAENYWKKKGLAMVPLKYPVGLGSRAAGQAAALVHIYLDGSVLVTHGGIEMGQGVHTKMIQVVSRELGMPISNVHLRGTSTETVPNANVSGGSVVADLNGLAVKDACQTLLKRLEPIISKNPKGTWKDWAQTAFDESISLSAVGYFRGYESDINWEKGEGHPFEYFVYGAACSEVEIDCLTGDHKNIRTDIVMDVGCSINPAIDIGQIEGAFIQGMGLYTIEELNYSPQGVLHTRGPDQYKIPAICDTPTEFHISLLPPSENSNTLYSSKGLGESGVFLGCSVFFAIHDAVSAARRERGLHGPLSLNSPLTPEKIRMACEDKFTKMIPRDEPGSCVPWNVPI

Aldehyde oxidase 1 [2] = biological target: T2, Aldehyde oxidase 1 (Oryctolagus cuniculus, UniProt P80456); assay: Inhibition of rabbit aldehyde oxidase
T2 sequence (P80456 whole entry): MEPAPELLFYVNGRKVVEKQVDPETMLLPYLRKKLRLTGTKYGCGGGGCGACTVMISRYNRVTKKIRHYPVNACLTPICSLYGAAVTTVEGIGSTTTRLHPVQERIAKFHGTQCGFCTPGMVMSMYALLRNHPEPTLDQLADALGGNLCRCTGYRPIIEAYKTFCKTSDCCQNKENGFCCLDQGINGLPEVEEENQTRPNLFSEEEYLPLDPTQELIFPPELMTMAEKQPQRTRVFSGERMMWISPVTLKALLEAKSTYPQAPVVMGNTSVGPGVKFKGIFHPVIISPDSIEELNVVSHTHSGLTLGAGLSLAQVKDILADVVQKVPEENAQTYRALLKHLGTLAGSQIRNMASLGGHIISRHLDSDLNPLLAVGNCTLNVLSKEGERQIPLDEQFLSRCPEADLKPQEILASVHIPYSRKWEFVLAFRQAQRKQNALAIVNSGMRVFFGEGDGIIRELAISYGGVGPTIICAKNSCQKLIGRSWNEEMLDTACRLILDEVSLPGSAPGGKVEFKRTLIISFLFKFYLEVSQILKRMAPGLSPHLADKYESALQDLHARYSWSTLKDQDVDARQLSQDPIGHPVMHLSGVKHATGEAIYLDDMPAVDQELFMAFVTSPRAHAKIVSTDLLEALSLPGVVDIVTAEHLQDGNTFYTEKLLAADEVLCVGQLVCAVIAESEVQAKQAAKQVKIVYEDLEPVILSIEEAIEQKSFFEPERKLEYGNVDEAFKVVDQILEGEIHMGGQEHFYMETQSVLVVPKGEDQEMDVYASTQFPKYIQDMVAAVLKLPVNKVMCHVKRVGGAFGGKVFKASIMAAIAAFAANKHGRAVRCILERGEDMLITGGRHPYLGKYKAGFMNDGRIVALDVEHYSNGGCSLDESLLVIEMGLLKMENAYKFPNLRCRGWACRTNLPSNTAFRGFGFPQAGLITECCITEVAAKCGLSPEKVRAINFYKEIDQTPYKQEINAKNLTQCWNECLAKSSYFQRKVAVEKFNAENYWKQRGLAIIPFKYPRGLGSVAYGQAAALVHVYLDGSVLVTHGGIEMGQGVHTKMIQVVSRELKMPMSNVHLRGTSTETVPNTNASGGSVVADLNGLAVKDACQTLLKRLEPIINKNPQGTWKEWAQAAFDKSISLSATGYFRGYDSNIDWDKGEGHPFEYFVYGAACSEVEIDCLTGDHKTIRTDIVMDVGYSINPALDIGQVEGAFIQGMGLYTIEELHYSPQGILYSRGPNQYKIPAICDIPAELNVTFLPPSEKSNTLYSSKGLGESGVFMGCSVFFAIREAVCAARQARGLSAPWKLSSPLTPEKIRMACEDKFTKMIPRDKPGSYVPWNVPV

| Compound | IC50 (Aldehyde oxidase 1 [1]) | IC50 (Aldehyde oxidase 1 [2]) |
| --- | --- | --- |
| C[C@]12CC[C@@H]3c4ccc(O)cc4CC[C@H]3[C@@H]1CC[C@@H]2O [ESTRADIOL] | 12 µM | 40 µM |
| OCCN1CCN(CCCN2c3ccccc3Sc3ccc(Cl)cc32)CC1 [PERPHENAZINE] | 3.6 µM | – |
